Literature values, collected in US20090233885A1, “Compositions and Methods for Fat Reduction” (priority 2006, published 2009).

How the values were obtained:
[1] = total administered amount per treatment
[2] = test system: adipose and muscle cells

| Substance | total administered amount above which cholinergic side effects (nausea, vomiting, diarrhea, flushing, sweating, bradycardia) occur [1] | cell specificity of effect [2] |
| --- | --- | --- |
| phosphatidylcholine [PC] | exceeds 2000 mg per treatment |  |
| sodium deoxycholate [DC] |  | nonspecific effects on both adipose and muscle cells |
